In patent US20150352134A1, “COMPOSITION FOR TOPICAL SKIN APPLICATION CONTAINING GINSENOSIDE F2 DERIVED FROM HYDROPONIC GINSENG” (AMOREPACIFIC CORPORATION, priority 2012, published 2015):

Experiments:
[1] = tested on: prostaglandin generation in macrophagocytes collected from the abdominal cavity of a mouse; test: Prostaglandin generation inhibition in LPS-treated macrophagocytes (ELISA); format: cell-based; details: 100 μl of ginsenoside F2
Description: The inflammatory effect is evaluated in terms of the inhibitory effect on prostaglandin generation. Ginsenoside F2 is used to measure the effect on macrophagocytes. Firstly, macrophagocytes collected from the abdominal cavity of a mouse are treated with aspirin to have the final concentration of 500 µM, causing irreversible inhibition on the activity of cyclooxygenase (COX) remaining in the macrophagocytes. Then, 100 μl of the suspension is put in each well of a 96-well culture plate and cultured in an incubator under the conditions of 5% CO2 and 37° C. for 2 hours to immobilize the macrophagocytes on the surface of the container. Subsequently, the immobilized macrophagocytes are washed with PBS three times and used in the inflammatory improvement test. […] Then, the macrophagocytes are treated with 100 μl of ginsenoside F2, and the isolated prostaglandin is quantitatively analyzed by way of ELISA (Enzyme-Linked ImmunoSorbent Assey).
In this regard, the prostaglandin generation inhibitory activity of the ginsenoside F2 is determined by the reduced amount of prostaglandin generated in the LPS-treated group in comparison with the case of the control in terms of the percentage amount of the prostaglandin decreased by treatment with LPS and the sample, while the difference in the amount of the generated prostaglandin between the LPS-treated group and the control group is set to 100%.

3T3-L1 cells = test: Lipogenesis inhibition in 3T3-L1 cells (Sudan III dyeing); format: cell-based, mouse; details: 50 µM
Description: The mouse fibroblast cell line, 3T3-L1 cells are immobilized in a 6-well culture plate filled with Dulbecco's modified eagle's medium (DMEM) (GIBCO BRL, Life Technologies, Inc.) containing 10% fetal bovine serum (FBS) at an amount of 1×10^5 cells/well. After 2 days, the used medium is replaced with a new DMEM (containing 10% FBS) medium to culture the cells for 2 days. […] After 5 days, the used DMEM medium is replaced with a normal medium (DMEM containing 10% FBS). The cells are cultured and observed until they are morphologically changed into fat cells. In order to evaluate the ginsenoside F2 in regards to the inhibitory effect on the fat accumulation in the fat cells, the completely differentiated 3T3-L1 fat cells are dyed with Sudan III ([…], Sigma-Aldrich). The fat cells are immobilized with 4% para-formaldehyde (pH 7.2) at the room temperature in a phosphate buffer solution. The fat cells are washed with phosphate-buffered saline (PBS) and then dyed with Sudan III. The picture of the fat cells is taken for visual evaluation. The control uses a medium using neither a test substance nor a comparative substance. The comparative control group is treated with 50 μM caffeine. The fat accumulation inhibitory ability is evaluated based on the degree of dying. The degree of dying is graded +++, ++, +, and - in the decreasing order.

Row | SMILES | prostaglandin generation (Blank = 100%) [1] [%] | Inhibition rate (%) (degree of dying with Sudan III) (3T3-L1 cells)
1 | CC(=O)Oc1ccccc1C(=O)O [Control (aspirin-treated group), aspirin, reference compound] | 25.0 | –
2 | Cn1c(=O)c2c(ncn2C)n(C)c1=O [Comparative group, caffeine, reference compound] | – | +
